The record followed here is patent publication US11815435B2, “Beta glucan immunopharmacodynamics” (HiberCell, Inc., priority 2017, dated 2023).

One experiment relates to IL-8, MCP-1, MIP-1β. The experiment is described as follows: Cytokine and chemokine serum levels (multiplex, Luminex) after IV PGG. Format: in vivo, human. On the procedure:
(§1) IPD changes induced by yeast soluble β-glucan were evaluated in a Phase I healthy donor trial, which included three cohorts of 12 healthy human volunteers aged 18-65 years. In Cohort 1, subjects were administered a single dose of 4 mg/kg yeast soluble β-glucan by IV infusion over 2-3 hours. In Cohort 2, subjects were administered 4 mg/kg PGG by IV infusion over 2-3 hours once weekly for 3 weeks. Half of the subjects received premedications which included low dose corticosteroids (4 mg of dexamethasone, PO) and low-dose H1 antagonists (50 mg diphenhydramine.
Subjects were stratified/classified into subgroups based on pre-infusion ABA levels. ABA cutoff levels were selected based on prior studies and are only exemplary. Classification may include only 2 subgroups based on an IgG ABA cutoff level of 15 μg/ml, 20 μg/ml, 25, μg/ml, 30 μg/ml, 35 μg/ml, 40 μg/ml, 45 μg/ml or 50 μg/ml. Classification may also include 3, 4, 5 or more subgroups with each subgroup corresponding to a specific IgG ABA level range. For example, a 3 subgroup classification may include a Low-ABA subgroup encompassing ABA level ranges of <15 μg/ml, <20 μg/ml, <25 μg/ml or <30 μg/ml, a Mid-ABA subgroup encompassing a range having a low end ABA level of 20 μg/ml, 25 μg/ml, 30 μg/ml, 35 μg/ml, 40 μg/ml or 45 μg/ml and a high end ABA level of 30 μg/ml, 35 μg/ml, 40 μg/ml, 45 μg/ml, 50 μg/ml or 55 μg/ml, and a High-ABA subgroup encompassing ABA level ranges of >35 μg/ml, >40 μg/ml, >45 μg/ml, >50 μg/ml, >55 μg/ml, >60 μg/ml, >65 μg/ml or >70 μg/ml. […] Serum and cellular IPD markers were analyzed pre-infusion, 15 minutes, 30 minutes and 1 hour post-infusion, end of infusion (EOI) and 1 hour, 2 hours, 3 hours, 4 hours, 24 hours, 48 hours and 168 hours after EOI.
Cytokine and chemokine serum levels were measured using Novex magnetic multiplex assay (Life Technologies) the Luminex XMAP technology. […]
The effect of premedications on IPD responses was also evaluated. […]

Experiment [1] relates to anti-β-glucan antibody (IgG ABA). The experiment is described as follows: Anti-β-glucan antibody (ABA) levels in serum by ELISA after IV PGG, Phase I healthy donor trial. Format: in vivo, human. The conditions noted are these: for ABA level changes: single dose PGG IV. On the procedure:
as §1
In Cohort 3, subjects received either 2 mg/kg PGG or 4 mg/kg PGG by IV infusion over 1-2 hours. The subjects were administered either dose of PGG once weekly for 2 weeks, then given a 2 week wash out (no PGG) and finally received one more dose of PGG (week 5). Adverse events and complete blood counts were evaluated. In addition, whole blood and serum was evaluated for the following at various time points post-infusion: PGG binding to immune cells (monocytes, neutrophils, B-cells, DC subsets), complement activation (C5a and Sc5b9), serum cytokine/chemokine levels, IgG ABA levels, flow cytometry of immune cells, circulating immune complex formation and Quantigene analysis of transcriptional profile. Table 1 lists each subject's pre-dose IgG ABA levels, PGG dose and whether they received premedications.
Subjects were stratified/classified into subgroups based on pre-infusion ABA levels. ABA cutoff levels were selected based on prior studies and are only exemplary. Classification may include only 2 subgroups based on an IgG ABA cutoff level of 15 μg/ml, 20 μg/ml, 25, μg/ml, 30 μg/ml, 35 μg/ml, 40 μg/ml, 45 μg/ml or 50 μg/ml. Classification may also include 3, 4, 5 or more subgroups with each subgroup corresponding to a specific IgG ABA level range. For example, a 3 subgroup classification may include a Low-ABA subgroup encompassing ABA level ranges of <15 μg/ml, <20 μg/ml, <25 μg/ml or <30 μg/ml, a Mid-ABA subgroup encompassing a range having a low end ABA level of 20 μg/ml, 25 μg/ml, 30 μg/ml, 35 μg/ml, 40 μg/ml or 45 μg/ml and a high end ABA level of 30 μg/ml, 35 μg/ml, 40 μg/ml, 45 μg/ml, 50 μg/ml or 55 μg/ml, and a High-ABA subgroup encompassing ABA level ranges of >35 μg/ml, >40 μg/ml, >45 μg/ml, >50 μg/ml, >55 μg/ml, >60 μg/ml, >65 μg/ml or >70 μg/ml. As discussed in International Published Application No. WO2015084732A1, various ABA cutoff levels may be used for reasons such as differences in soluble β-glucan immunotherapy treatments and preferences regarding inclusiveness and exclusiveness of subgroups. Here, subjects whose ABA levels were less than 20 μg/ml were considered Low-ABA. Subjects with ABA levels between 20 μg/ml and 50 μg/ml were considered Mid-ABA. Subjects with ABA levels greater than 50 μg/ml were High-ABA. Serum and cellular IPD markers were analyzed pre-infusion, 15 minutes, 30 minutes and 1 hour post-infusion, end of infusion (EOI) and 1 hour, 2 hours, 3 hours, 4 hours, 24 hours, 48 hours and 168 hours after EOI.
ABA levels were then followed in subjects through single and multiple doses of PGG. ABA levels were measured in serum by ELISA, and subjects were placed in subgroups based on pre-infusion ABA levels: Low-ABA (<20 μg/mL), Mid-ABA (20-50 μg/mL) or High-ABA (>50 μg/mL). Whole blood or serum was drawn from the subjects at various time points before and after a single dose (Cohort 1) or multiple weekly doses (Cohorts 2 and 3) of PGG infusion. […] In some cases, such as shown for subject 67 in the Low-ABA subgroup, the increase may lead to a change in subgroup (Low-ABA to Mid-ABA).
Increasing the time between soluble β-glucan doses may not only promote repeated acute IPD responses but also enhance acute IPD responses, which may increase the effectiveness of soluble β-glucan therapy. […]
A general note: In an ELISA, binding on a coated surface is turned into a signal by an enzyme label.

On to “β(1,6)-[poly-(1,3)-D-glucopyranosyl]-poly-β(1,3)-D-glucopyranose [PGG]”, for which, in the experiment on IL-8, MCP-1, MIP-1β (Mid-ABA and High-ABA subjects, dexamethasone and diphenhydramine premedication vs none), the “PGG-mediated cytokine induction (IL-8) with premedications” value was “dampened”. Further, in the experiment on IL-8, MCP-1, MIP-1β (pre-dose to end of infusion, healthy subjects), the “increases in cytokine and chemokine serum levels, especially IL-8 and MCP-1” value is listed as “consistently detected”. Besides, the “acute IPD response in IL-8, MCP-1 and MIP-1 levels” value in the experiment on IL-8, MCP-1, MIP-1β (two High-ABA subjects, weekly dosing, after week 2 infusion) was “acute IPD response was seen”. The “ABA levels over the 5 week course of treatment” value in experiment [1] (Cohort 3: weeks 1, 2, 2 week wash out, week 5 dose, High-, Mid-, Low-ABA subjects) is on record as “Increases in ABA were seen in all subjects with the largest increase occurring after administration of the week 5 dose”. The ABA subgroup classification result in experiment [1] (Cohort 3 Low-ABA subject, after the last (week 5) dose) is on record as “converted to the Mid-ABA classification”. The ABA level changes result is “dropped during infusion with PGG and then rebounded about 48 hours EOI” in experiment [1] (High-ABA (>50 μg/ml) healthy subjects); “essentially unaffected” in experiment [1] (Low-ABA (<20 μg/ml) healthy subjects); “increased at 48 hours after the EOI” in experiment [1] (Mid-ABA (20-50 μg/ml) healthy subjects). In addition, the “ABA levels after multiple doses” value in experiment [1] (multiple weekly doses of PGG (Cohorts 2 and 3)) was “can increase ABA levels for some subjects”.
